Measured values from publication doi:10.1101/2025.07.01.662521v3, “Ligand-induced Conformational Plasticity of the CTLH E3 Ligase Receptor GID4” (biorxiv, 2026).
Read-outs that look alike come from different tables or passages of the source.

How the values were obtained:
[1] = biological target: T1, GID4 (Homo sapiens, UniProt Q8IVV7); assay: biochemical; parameters: SPR binding affinity to immobilized biotinylated GID4; details: read-out: KD by SPR
T1 construct: residues 116-300; N-terminal Strep-SUMO-3C-6xHis-Avi, HRV-3C cleaved, Avi-tag kept and biotinylated; E. coli BL21(DE3)
T1 sequence (Q8IVV7 116-300): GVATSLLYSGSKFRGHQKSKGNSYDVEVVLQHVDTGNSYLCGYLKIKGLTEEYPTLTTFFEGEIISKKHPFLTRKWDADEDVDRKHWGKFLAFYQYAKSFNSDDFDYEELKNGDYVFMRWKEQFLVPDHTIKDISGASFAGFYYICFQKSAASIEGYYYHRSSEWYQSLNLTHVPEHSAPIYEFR
Experimental: (§1) Following the identification of the binding pocket and the key interactions of the initial fragment, we initiated the synthesis of a series of analogs to explore the structure-activity relationship (SAR) (Table 1). The resulting changes in affinity were evaluated using surface plasmon resonance (SPR) and differential scanning fluorimetry (DSF). […] In the next step, we replaced the 3-Cl group to find an additional potency boost. […] All constructs were verified by sequencing. Protein was expressed by transforming plasmid into chemically competent recombinant E. coli BL21(DE3) strain. E coli was cultured in LB medium supplemented with 50 µg/mL kanamycin in shaker flasks at 37 °C and 160 rpm. Once an optical density at 600 nm (OD600) reached 0.5-0.6, protein expression was induced by an addition of 0.1 mM IPTG.

[2] = biological target: T2, GID4 (Homo sapiens, UniProt Q8IVV7); parameters: Differential scanning fluorimetry, thermal shift of GID4; details: binder
T2 construct: residues 116-300, N-terminal 6xHis-SUMO tag (DSF construct)
T2 sequence (Q8IVV7 1-300): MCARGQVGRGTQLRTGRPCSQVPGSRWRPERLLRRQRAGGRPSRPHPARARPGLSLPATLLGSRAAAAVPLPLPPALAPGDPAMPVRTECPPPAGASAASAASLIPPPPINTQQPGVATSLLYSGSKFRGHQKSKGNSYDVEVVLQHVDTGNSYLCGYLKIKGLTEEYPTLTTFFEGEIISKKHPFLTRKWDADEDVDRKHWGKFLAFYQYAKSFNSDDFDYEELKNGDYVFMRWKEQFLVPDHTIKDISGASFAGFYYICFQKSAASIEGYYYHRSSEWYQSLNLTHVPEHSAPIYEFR
Experimental: Following the identification of the binding pocket and the key interactions of the initial fragment, we initiated the synthesis of a series of analogs to explore the structure-activity relationship (SAR) (Table 1). The resulting changes in affinity were evaluated using surface plasmon resonance (SPR) and differential scanning fluorimetry (DSF). […] In the next step, we replaced the 3-Cl group to find an additional potency boost. […] MATERIALS AND METHODS Recombinant Protein Expression and Purification GID4 Expression and Purification Human Glucose-induced degradation protein 4 homolog (Gid4, UniProt ID: Q8IVV7) residues 124-289 were cloned into a vector to generate a N-terminal 6xHis-SUMO-tag for crystallography studies, residues 116-300 were cloned into a vector to generate a N-terminal 6xHis-SUMO-tag for DSF studies and residues 116-300 were cloned into a vector to generate a N-terminal Strep-SUMO-3C-6xHis-AVI-tag for SPR experiments. All constructs were verified by sequencing. Protein was expressed by transforming plasmid into chemically competent recombinant E. coli BL21(DE3) strain. E coli was cultured in LB medium supplemented with 50 µg/mL kanamycin in shaker flasks at 37 °C and 160 rpm. Once an optical density at 600 nm (OD600) reached 0.5-0.6, protein expression was induced by an addition of 0.1 mM IPTG.

[3] = biological target: T1, GID4; assay: SPR; assay type: binding
[4] = biological target: T3, HiBiT-GID4(FL) (Homo sapiens, UniProt Q8IVV7); parameters: species or system HEK293T; HiBiT cellular thermal shift of full-length GID4, luminescence, delta Tagg; details: binder
T3 construct: full length, N-terminal HiBiT tag, stably expressed in HEK293T (piggyBac)
T3 sequence (Q8IVV7 1-300): T2 sequence (Q8IVV7 1-300)
From the text: (§2) Following the confirmation of cellular target engagement, we assessed the ability of GID4 to induce targeted protein degradation by synthesizing a panel of GID4-BRD4 bifunctional compounds. We utilized our lead ligand 14 together with a well-known BRD4 ligand JQ1, exploring a range of standard linkers with varying exit vectors and lengths, including rigid alkyl, and flexible PEG (2x, or 4xPEG) (Figure 6A). […] We assessed binary interactions with GID4 and BRD4, as well as the ternary complex formation by SPR and HTRF (Figure 6 and Table S2). All bifunctional compounds, except for 26, retained high affinity for BRD4 (K ^BRD4 =0.006-0.02 µM). […] Crucially, all degraders equipped with the active JQ1 warhead mediated ternary complex formation between GID4 and BRD4 (Figure 6 B-C). We further utilized NanoBRET assay to confirm BRD4 engagement, in both intact and lysed HEK293T cells (Table S2). […] This discrepancy indicates potential permeability limitations or active efflux of the bifunctional molecules. Despite successful BRD4 engagement, none of the degraders stabilized GID4 in the intracellular engagement assay, resulting in negative ΔTagg values (Table S2). This was consistent across all compounds, independent of linker length, composition, or exit vector. Consequently, no degradation of BRD4 was observed (Figures S11–S13), highlighting that while ternary complex formation is achievable in vitro, the physicochemical properties of these GID4-based PROTACs currently limit their intracellular efficacy.

[5] = biological target: BRD4 (Homo sapiens, UniProt O60885); parameters: SPR binary binding affinity to BRD4; details: binder
From the text: as §2

[6] = biological target: T1, GID4; parameters: SPR binding affinity to immobilized biotinylated GID4; details: binder
Experimental: as §1

SMILES	Kd [1] [nM]	ΔTm by DSF (°C) [2]	further results
COCCOCCC1CCN(C(=O)c2cc(-c3cc(F)cc(N=C(N)N4CCC(C)(C)CC4)c3)oc2C)CC1 [compound 20]	50	6.5 ± 0,03 °C	
Cc1ccc(-c2cc(F)cc(N=C(N)N3CCC(C)CC3)c2)o1 [compound 9]			Kd ([3]; PBS pH 7.4, 0.05% P-20, 1 mM DTT, 1% DMSO, biotinylated GID4 immobilised on SA chip, read-out: KD): 730 nM
CC1CCCN(C(N)=Nc2cc(F)cc(Cl)c2)C1 (centres unmarked) [compound 7]		3.3 ± 0.03 °C	Kd ([3]; read-out: KD): 4120 nM
CC(=O)N1CCN(CC2CCN(C(=O)c3cc(-c4cc(F)cc(N=C(N)N5CCC(C)(C)CC5)c4)oc3C)CC2)CC1 [compound 22]	140	5.9 ± 0.04 °C	
CC1CCCCN1C(N)=Nc1cc(F)cc(Cl)c1 (centres unmarked) [compound 5]		3.3 ± 0.04 °C	Kd ([3]; read-out: KD): 2870 nM
Cc1oc(-c2cc(F)cc(/N=C(/N)N3CCC(C)(C)CC3)c2)cc1C(=O)N1CCCC(CN2CCN(C(=O)C[C@@H]3N=C(c4ccc(Cl)cc4)c4c(sc(C)c4C)-n4c(C)nnc43)CC2)C1 (some centres unmarked) [compound 25, 25]			GID4 intracellular target engagement ΔTagg [ºC] [4]: -1.4 ± 0.3 °C; Kd [5]: 20 nM; Kd [6]: 500 nM
Cc1ccc(-c2cc(F)cc(N=C(N)N3CCCCC3C)c2)o1 (centres unmarked) [compound 8]		4.3 ± 0.05 °C	Kd ([3]; read-out: KD): 940 nM
CC(=O)N1CCN(CC2CCCN(C(=O)c3cc(-c4cc(F)cc(N=C(N)N5CCC(C)(C)CC5)c4)oc3C)C2)CC1 (racemic) [compound 23]	90	6.4 ± 0.02 °C	
Cc1oc(-c2cc(F)cc(N=C(N)N3CCC(C)(C)CC3)c2)cc1C(=O)N(C)C [compound 12]	60	6.9 ± 0.18 °C	
Cc1oc(-c2cc(F)cc(/N=C(/N)N3CCC(C)(C)CC3)c2)cc1C(=O)N1CCC(CN2CCN(C(=O)C[C@@H]3N=C(c4ccc(Cl)cc4)c4c(sc(C)c4C)-n4c(C)nnc43)CC2)CC1 [compound 24, 24]			GID4 intracellular target engagement ΔTagg [ºC] [4]: -1.7 ± 1.2 °C; Kd [5]: 13 nM; Kd [6]: 320 nM
Cc1oc(-c2cc(F)cc(/N=C(/N)N3CCC(C)(C)CC3)c2)cc1C(=O)N1CCCC(OCCOCCOCCOCCOCCNC(=O)C[C@@H]2N=C(c3ccc(Cl)cc3)c3c(sc(C)c3C)-n3c(C)nnc32)C1 (some centres unmarked) [compound 30, 30]			GID4 intracellular target engagement ΔTagg [ºC] [4]: -0.3 ± 1.0 °C; Kd [5]: 6 nM
Cc1oc(-c2cc(F)cc(/N=C(/N)N3CCC(C)(C)CC3)c2)cc1C(=O)N1CCN(C)CC1 [compound 15, 15]	120	5.9 ± 0.08 °C	
NC(=Nc1cccc(F)c1)N1CCCCC1 [compound 3]		3.3 ± 0.06 °C	Kd ([3]; read-out: KD): 12000 nM
CNC(=O)c1cc(-c2cc(F)cc(N=C(N)N3CCC(C)(C)CC3)c2)oc1C [compound 11]	310	4.8 ± 0.07 °C	
COC1CCCN(C(=O)c2cc(-c3cc(F)cc(N=C(N)N4CCC(C)(C)CC4)c3)oc2C)C1 (racemic) [compound 19]	50	7.1 ± 0.01 °C	
COC1CCN(C(=O)c2cc(-c3cc(F)cc(N=C(N)N4CCC(C)(C)CC4)c3)oc2C)CC1 [compound 18]	130	7.1 ± 0,04 °C	
Cc1oc(-c2cc(F)cc(/N=C(/N)N3CCC(C)(C)CC3)c2)cc1C(=O)N1CCC(OCCOCCOCCOCCOCCNC(=O)C[C@@H]2N=C(c3ccc(Cl)cc3)c3c(sc(C)c3C)-n3c(C)nnc32)CC1 [compound 29, 29]			GID4 intracellular target engagement ΔTagg [ºC] [4]: 0.1 ± 0.4 °C; Kd [5]: 6 nM
NC(=Nc1cc(F)cc(Cl)c1)N1CCCCC1 [compound 4]		2.8 ± 0.08 °C	Kd ([3]; read-out: KD): 8160 nM
CC1CCN(C(N)=Nc2cc(F)cc(Cl)c2)CC1 [compound 6]		3.2 ± 0.08 °C	Kd ([3]; read-out: KD): 2940 nM
COCCOCCC1CCCN(C(=O)c2cc(-c3cc(F)cc(N=C(N)N4CCC(C)(C)CC4)c3)oc2C)C1 (racemic) [compound 21]	50	6.8 ± 0.04 °C	
Cc1oc(-c2cc(F)cc(/N=C(/N)N3CCC(C)(C)CC3)c2)cc1C(=O)N1CCCC(OCCOCCOCCNC(=O)C[C@@H]2N=C(c3ccc(Cl)cc3)c3c(sc(C)c3C)-n3c(C)nnc32)C1 (some centres unmarked) [compound 28, 28]			GID4 intracellular target engagement ΔTagg [ºC] [4]: -2.6 ± 3.7 °C; Kd [5]: 16 nM
NC(=Nc1cccc(Cl)c1)N1CCCCC1 [compound 2]		1.6 ± 0.13 °C	Kd ([3]; read-out: KD): 23000 nM
Cc1oc(-c2cc(F)cc(/N=C(/N)N3CCC(C)(C)CC3)c2)cc1C(=O)N1CCOCC1 [compound 16, 16]	90	6.2 ± 0.01 °C	
Cc1oc(-c2cc(F)cc(N=C(N)N3CCC(C)(C)CC3)c2)cc1C(=O)N1CCCCC1 [compound 14]		7.7 ± 0.05 °C	Kd ([3]; read-out: KD^GID4): 30 nM
Cc1oc(-c2cc(F)cc(/N=C(/N)N3CCC(C)(C)CC3)c2)cc1C(=O)N1CCC(CN2CCN(C(=O)C[C@H]3N=C(c4ccc(Cl)cc4)c4c(sc(C)c4C)-n4c(C)nnc43)CC2)CC1 [compound 26]			Kd ([3]; PBS pH 7.4, 0.05% P-20, 1 mM DTT, 1% DMSO, biotinylated GID4 immobilised on SA chip, read-out: KD^GID4): 630 nM; GID4 intracellular target engagement ΔTagg [ºC] [4]: -2 ± 0.6 °C
Cc1oc(-c2cc(F)cc(N=C(N)N3CCC(C)(C)CC3)c2)cc1C(=O)Nc1ccccc1 [compound 13]	1430	3.9 ± 0.03 °C	
